This series is described as follows: Human HepG2 cell viability assay in 384 well format. In kind it is toxicity, cell-based. Also on record: dose 125 nL, time 70.5 hour; concentration not given beside the values. The conditions noted are these: HepG2 cells, read-out: Inhibition.

On to `CC1=N[C@@]2(CC[C@@H]3CN(C(=O)NCc4cccc(F)c4)C[C@@H]32)C(=O)N1`, for which the cytotoxicity at 70.5 h is -3.91%.
As for `O=C(Nc1ccccc1)N1CC(C(=O)N2CCCC2)C2(CCOCC2)C1` (centres undefined), the cytotoxicity at 70.5 h was -10.8%.
In the case of `Cc1cccc(NC(=O)N2CC(C(=O)NC(C)C)C3(CCOCC3)C2)c1` (centres undefined), the cytotoxicity at 70.5 h stood at 9.15%.
The same measure for `CC1=N[C@@]2(CC[C@@H]3CN(C(=O)NCc4ccccc4C)C[C@@H]32)C(=O)N1`: 7.73%.
The same measure for `CC1=N[C@@]2(CC[C@@H]3CN(C(=O)NCCc4ccccc4)C[C@@H]32)C(=O)N1`: 7.76%.
On to `CCC1=N[C@@]2(CC[C@@H]3CN(C(=O)NCC4CCCCC4)C[C@@H]32)C(=O)N1`, for which the cytotoxicity at 70.5 h was -2.69%.
Regarding `O=C(c1cscn1)N1CCC2(CC1)CN(c1ccccn1)CCO2`, the cytotoxicity at 70.5 h is -9.14%.
On to `O=C(NCC1CC1)c1c2c(N3CCCC3)ncnc2n2ccccc12`, for which the cytotoxicity at 70.5 h came to 9.08%.
Consider `COCC(=O)N1CC[C@@H](N2CCN(C)CC2)[C@@H]1Cc1ccccc1`, for which the cytotoxicity at 70.5 h was 9.62%.
Turning to `CNC(=O)C1=NOC2(CCN(Cc3nccs3)C2)C1` (centres undefined), the cytotoxicity at 70.5 h was -3.01%.
The same measure for `Cc1cc2ccccc2n1CCC(=O)N1CCCC2(CC1)CNC(=O)O2` (centres undefined): -7.42%.
The same measure for `Cc1cc(C(=O)N(Cc2c(C)nn(C)c2C)C(C)C)nc(C)n1`: 17%.
Turning to `NC(=O)c1csc(N2CCN(C3CCc4ccccc4C3)CC2)n1` (centres undefined), the cytotoxicity at 70.5 h is -14.7%.
Turning to `CS(=O)(=O)CCN1C[C@H](NC(=O)c2cnc(O)cn2)[C@@H](C2CC2)C1`, the cytotoxicity at 70.5 h worked out at 11.1%.
To `O=C(CCc1nc(-c2ccccc2)no1)N[C@H]1COC[C@@H]1N1CCCC1` belongs -9.03%; to `CCC(Nc1nc(CCN)nc2ccccc12)c1cccs1` (centres undefined), -3.38%.
Consider `CCC(NC(=O)C1CCN(C(C)C)CC1)c1cn2cccnc2n1` (centres undefined), for which the cytotoxicity at 70.5 h is -2.43%.
`Cc1nn(C)c2nc(NCCCN3CCCC(C(N)=O)C3)sc12` (centres undefined): the cytotoxicity at 70.5 h is -8.69%.
To `CSc1cccc(NC(=O)N2CCCC(CNC(=O)c3ccco3)C2)c1` (centres undefined) belongs -8.32%.
To `CC(C)CCN1CC2(CCN(C3CCCOC3)CC2)OC1=O` (centres undefined) belongs -8.74%; to `Cc1cccc2c1nc(COCC(=O)O)n2-c1ccc(N)nc1`, 9.09%.
To `CN(C)CCO[C@H]1C[C@@H](O)C12CCN(c1ncccc1Cl)CC2` belongs -5.24%; to `O=C(O)c1cc(-c2ccoc2)cc(S(=O)(=O)NCc2ccccn2)c1`, -8.18%.
As to `COc1ccc2c(c1)OCC(Cc1cc(C(=O)N3CCCC3)ccn1)C2` (centres undefined), the cytotoxicity at 70.5 h was -32.3%.
As to `O=C1NCCCc2[nH]c(C3CCN(C(=O)C4CC4)CC3)nc21`, the cytotoxicity at 70.5 h is 11.6%.
On to `Cc1nc(N(Cc2ccncc2)CC2CCCO2)c2ccsc2n1` (centres undefined), for which the cytotoxicity at 70.5 h is -5.47%.
As to `CCCS(=O)(=O)NCc1cccnc1Oc1ccc(C)c(F)c1F`, the cytotoxicity at 70.5 h is -1.35%.
Consider `CC(C)CN(Cc1cnn(C)c1)C(=O)C1COc2ccccc2C1` (centres undefined), for which the cytotoxicity at 70.5 h turned out to be 1.15%.
To `Cc1nc[nH]c1C(=O)NCc1cccnc1N(C)C1CCCCC1` belongs 4.83%; to `O=C(CC1COCCN1)N1CCC(N2CCc3ccccc3C2)CC1` (centres undefined), 7.65%.
To `CCn1nc(C)c(CCNC(=O)c2cccc(NCC(=O)O)c2)c1C` belongs 1.17%.
The same measure for `CN(C)c1nc2c(c(=O)[nH]1)CCN(C(=O)c1ccc(=O)[nH]c1)C2`: -3.2%; for `CCn1c(C2CCCN(Cc3ccc(OC)c(C)c3C)C2)nn(C)c1=O` (centres undefined): -5.07%; for `N#CC1(c2ccccc2)CCN(C(=O)C2CCCN(C(N)=O)C2)CC1` (centres undefined): 43.9%.
Take `Cc1[nH]c2c(C)ccc(C)c2c1CC(=O)NC1CCCNC1=O` (centres undefined): the cytotoxicity at 70.5 h was -5.85%.
For the compound `Cc1ccc(-c2nnc(CN3CCCC(O)(CO)CC3)o2)n1C` (centres undefined), the cytotoxicity at 70.5 h was 14.8%.
To `COc1cccc2c1OCC(Cc1cnc(N)c(C)c1)C2` (centres undefined) belongs -8.04%.
As for `Cn1cc(CCC(=O)N2C[C@H]3CC[C@@H]2CN(Cc2cccnc2)C3)cn1`, the cytotoxicity at 70.5 h worked out at 12.2%.
In the case of `C[C@@H]1CN(CCC(=O)NCc2ccccc2Cl)CC[C@@]1(O)C1CCC1`, the cytotoxicity at 70.5 h was -0.451%.
The same measure for `COCc1cc(N2CCOCC2)n2nccc2n1`: -3.4%; for `Cc1nc(C)c(Cc2nc(C3CC3)n[nH]2)c(=O)[nH]1`: -3.16%; for `O=C(c1cc(=O)[nH]c(=O)[nH]1)N1CCCC(CO)(CC2CC2)C1` (centres undefined): -10.5%.
To `c1cnn(Cc2ccc(CN3CCC4(CCNCC4)C3)cc2)c1` belongs 2.52%; to `Cc1nc(CN(C)Cc2nc(-c3sccc3C)oc2C)no1`, -3%; to `Cc1ccc(N2CCN(c3ccccc3C)CC2C)nn1` (centres undefined), -0.203%.
To `O=C(Nc1cnc2n1CCCC2)c1cccc(OCC(F)(F)F)c1` belongs -6.16%; to `Cc1cc(N2Cc3cnn(CCO)c3C2)nc(-c2ccccc2)n1`, -11.9%; to `Cc1ccc(-c2cnnc(NCC3(N4CCOCC4)CCCC3)n2)o1`, -8.14%.
Turning to `COc1ccccc1CC(=O)N(CCN1CCOCC1)Cc1ccco1`, the cytotoxicity at 70.5 h was -1.43%.
The same measure for `Cc1ccc(C(C(=O)NC(C)(C)CN2CCCC2)N(C)C)cc1` (centres undefined): 45%.
Turning to `Cc1cc(CC(C)Nc2nc(-c3cccnc3)nc3c2CNC3)[nH]n1` (centres undefined), the cytotoxicity at 70.5 h is -12%.
Take `CCNC(=O)[C@@H]1C[C@H](N)CN1Cc1ccc2cccc(Cl)c2n1`: the cytotoxicity at 70.5 h is -7.99%.
To `Cc1n[nH]c(CN2CCN(Cc3ccccc3)[C@@H]3CS(=O)(=O)C[C@@H]32)n1` belongs 0.0797%.
Take `CCCn1ncc(C(=O)N2CCN(C(=O)c3ccc[nH]3)CC2)c1C`: the cytotoxicity at 70.5 h is -7.32%.
In the case of `CC(C)[C@@H]1CN(Cc2ccccn2)C[C@H]1NS(=O)(=O)N(C)C`, the cytotoxicity at 70.5 h was -0.239%.
The same measure for `CC(C)(C)NC(=O)[C@@H]1Cc2ccccc2CN1Cc1cccs1`: 8.37%.
Turning to `O=C(CCCc1ccc(Cl)cc1)N1CCC(c2nnc[nH]2)CC1`, the cytotoxicity at 70.5 h was -2.6%.
For the compound `CC(C)(CN1CCC2(CCCNC2)C1)N1CCOCC1` (centres undefined), the cytotoxicity at 70.5 h amounted to 8.57%.
The same measure for `CC(C)N1CCC(N2CCCC(C(=O)NCC3(O)CCCCC3)C2)CC1` (centres undefined): -3.9%; for `Cc1cc(C)c2nc(CN3CCC(N4CCOC4=O)CC3)cc(O)c2c1`: 2.37%.
The same measure for `Cc1cccc(CN2CCCC(O)(CNCCc3c[nH]cn3)C2=O)c1` (centres undefined): 9.08%; for `CC(=O)NC1CCN(C(=O)c2cnc(COc3ccccc3)nc2O)C1` (centres undefined): -4.02%.
To `CC(C)(O)c1cn(C2CCN(c3ncccc3Cl)CC2)nn1` belongs 3.9%; to `Cc1cc(C)c(-n2cccn2)c(CN2CCOCC(CN(C)C)C2)c1` (centres undefined), -3.75%; to `CCOCC(=O)N1Cc2cnc(-c3ccccc3)nc2C1`, -13%.
Take `O=C(c1ccccc1)N1C[C@@H]2CC[C@H](C1)N(S(=O)(=O)c1cccnc1)C2`: the cytotoxicity at 70.5 h is -7.07%.
The same measure for `CN(C)CCOc1cccc(CN2CCCC3(C2)CN(C)C(=O)O3)c1` (centres undefined): 26%; for `Oc1cc(CNCCN2CCCCC2)nc2c(F)cccc12`: 24.5%; for `Cc1cccnc1NCCNC(=O)c1cnc(-c2ccccn2)nc1O`: 46.5%.
Regarding `COc1cccc(N2CCN(C(=O)C(O)c3ccccc3Cl)CC2=O)c1` (centres undefined), the cytotoxicity at 70.5 h was -4.36%.
To `CCc1cn[nH]c1C1CCN(C(=O)c2cccc(O)c2C)CC1` belongs -12.3%; to `COCCN(CC1CCCO1)C(=O)CCNC(=O)c1ccccc1F` (centres undefined), -13.6%.
The same measure for `Cc1cnc(NC(=O)c2ccc(C3CCCN3CC(C)C)s2)s1` (centres undefined): -5.46%; for `O=C(Nc1cccc2ccccc12)N1CCC(N2CCSCC2)CC1`: -0.0142%; for `Cc1ccc(OCc2occc2C(=O)N2C[C@@H]3[C@@H](CN(C)C)[C@@H]3C2)cc1`: -9.55%.
As for `CCc1cc(N(C)CCc2noc(C)n2)nc(N2CCOCC2)n1`, the cytotoxicity at 70.5 h was -7.76%.
As to `CC(C)Oc1cccc(Cc2nc3c([nH]2)CCCNC3=O)c1`, the cytotoxicity at 70.5 h was -4.78%.
To `Cc1ccc2c(n1)N(CC(C)C)CCN(S(C)(=O)=O)C2` belongs -6.3%.
On to `Cc1occc1C(=O)N1CCC2(CC1)CN(c1ccccn1)CCO2`, for which the cytotoxicity at 70.5 h is -5.88%.
On to `Cc1noc(C)c1CN1CC[C@H]2OCC[C@@]2(C(=O)NC2CCCC2)C1`, for which the cytotoxicity at 70.5 h was -9.16%.
The same measure for `O=S(=O)(NCC1COCc2c(-c3ccncc3)nnn2C1)C1CC1` (centres undefined): -3.99%; for `Cc1ccoc1C(=O)N1CCn2nnc(COc3cccnc3)c2C1`: -11.5%.
To `COc1cc(N2C[C@H]3CCC[C@@H](CN(C)C)[C@H]3C2)ncn1` belongs -10.1%; to `Cn1cccc1C(=O)N1CCn2nnc(COc3cccnc3)c2C1`, -8.46%.
Take `COc1cc(N2C[C@H]3CCC[C@@H](CN4CCOCC4)[C@H]3C2)ncn1`: the cytotoxicity at 70.5 h was -8.48%.
Consider `c1nc(CNC2CCOCC2)c2n1CCCN(CC1CC1)C2`, for which the cytotoxicity at 70.5 h is -3.82%.
To `CCS(=O)(=O)N1CCN(Cc2ccncc2)c2nc(C)ccc2C1` belongs -5.64%; to `O=C(c1cccnc1)N1CCn2nnc(COc3ccccn3)c2C1`, -14.2%; to `CCS(=O)(=O)N1CCN(Cc2cccnc2)c2nc(C)ccc2C1`, 5.16%.
On to `c1cncc(OCC2CN(Cc3ccsc3)Cc3nccn3C2)c1` (centres undefined), for which the cytotoxicity at 70.5 h was 6.26%.
The same measure for `CS(=O)(=O)NCc1ncn2c1CN(Cc1cccs1)CCC2`: -7.97%; for `O=C1CC2(CCN(Cc3cccnc3)C2)CN1c1ccc2c(c1)OCO2` (centres undefined): 12.8%.
The same measure for `O=C1CO[C@@H]2CN(Cc3cccs3)C[C@H]2N1Cc1cccnc1`: -10.9%; for `O=C1CO[C@@H]2CN(Cc3cccnc3)C[C@H]2N1Cc1ccncc1`: -6.09%.

The values are drawn from ChEMBL document CHEMBL3507680, “University of Dundee, Gates Library screen for HepG2 cell viability”.
